Laboratory results taken from patent publication US20220023317A1, “PREVENTING OR MITIGATING CHEMOTHERAPY INDUCED ALOPECIA USING VITAMIN D” (Berg LLC, priority 2013, published 2022).
Read-outs that look alike come from different tables or passages of the source.

Experiments:
HEKa cells [1] = test: Real-time PCR Heat Shock Protein array, calcitriol-treated HEKa; type: cell-based, human; conditions: 0.1 μg/mL calcitriol, two independent experiments
Protocol: (§1) Changes in mRNA levels were evaluated using real-time PCR quantification to assess mRNA levels in preselected subsets containing 80 pathway specific targets (see Appendix). The PCR array analysis utilized two groups of genes—those related to Heat Shock Proteins (SABiosciences), and those related to Neuroscience Ion Channels and Transporters (SABioscience). Cell culture: Primary human epidermal keratinocytes (HEKa) were maintained in Epilife Medium (Cascade Biologics, Inc., Portland Oreg.) along with Human Keratinocyte Growth Supplement (Cascade Biologics, Inc., Portland Oreg.). […] D3 treatment of HEKa cells: […] Vehicle control group of cells were treated with 5 mL media containing 1 μL of ethanol. Cells were harvested 3, 6, 16, 24, 48, or 72 hours after the start of the treatment. RNA isolation: Cells were lysed for RNA isolation at different treatment times using the RNeasy Mini kit (Qiagen, Inc., Valencia Calif.) following the manufacturer's instructions. RNA was quantified by measuring optical density at 260 nm. First Strand Synthesis: […] Real-time PCR: Products from the first strand synthesis were diluted with water, mixed with the SYBR green master mix (SABiosciences., Frederick Md.) and loaded onto PCR arrays. Real time PCR was run on the PCR Arrays (Heat Shock Protein Arrays, and Neuroscience and Ion Channel Arrays) (SABiosciences, Frederick Md.) on a Biorad CFX96. Data analyses were performed using the PCR array data analysis software available on the SABiosciences website.

HEKa cells [2] = test: Real-time PCR Neuroscience and Ion Channels array, calcitriol-treated HEKa; type: cell-based, human; conditions: 0.1 μg/mL; for KCNB2 mRNA regulation pattern: full cell: upregulated until 24 hours
Protocol: as §1

HEKa cells [3] = test: 2-D gel electrophoresis proteomic analysis of calcitriol-treated HEKa; type: cell-based, human; conditions: 0.1 μg/mL
Protocol: The cell pellets were then analyzed using proteomic methods, such as 2-D gel and Western blot analysis. […] In all, analysis of about 458 protein spots in the comparative study was performed, comparing the control sample against the 3-, 6-, and 24-hour treatment samples. Six spots showing statistically significant differential changes were identified. These spots were excised, and their protein contents subjected to sequence identification by trypsin digestion and mass spectrometry characterization.

HEKa cells [4] = test: Keratinocyte growth with calcitriol titration; type: cell-based, human; conditions: titration 0.008-2.0 μg/mL
Protocol: All experiments were conducted in 96-well plate format. Each well contained the same amount of HEKa cells in about 100 μL of media (usually between 2,000-5,000 cell/well). Calcitriol was dissolved in ethanol to make a stock solution. The stock solution was serially diluted 1:2 in the growth media, covering a range of between 4.0 μg/mL to about 15.5 ng/mL (9 test concentrations). […] All experiments were conducted in duplicates.

SKMEL-28 = test: Cell growth / viability assay; type: cell-based
NIH-3T3 = test: Cell growth / viability assay; type: cell-based
[5] = test system: Long Evans and Sprague Dawley rats
Protocol: Specifically, Long Evans and Sprague Dawley rats with pups were purchased from Harlan Laboratories, Inc. They were housed and fed according to applicable animal handling rules and regulations. Pups were allowed to acclimate for 48 hours prior to the start of experiments. […] Rats were isolated from their littermates and mother for 6-hour periods of time. Subsequently, the treated area was cleaned with soap and water and pups were returned to their litters. On day 13, rats either received etoposide (1.5 mg/kg daily for 3 days) or cyclophosphamide (CTX) (37.5 mg/kg once) or combination cyclophosphamide (35 mg/kg once) and doxorubicin (2.5 mg/kg daily for 3 days). All chemotherapies were purchased from Sigma and were given intraperitoneally (i.p.) in a total volume of 0.1 mL. Alopecia was recorded 10 days after the last dose of chemotherapy.

[6] = test system: MIAC51 (chloroleukemia cells); test: Rats transplanted with chloroleukemia MIAC51, CTX with topical calcitriol; type: in vivo, rat; conditions: cyclophosphamide, preliminary results
Protocol: For experiments in which rats were transplanted with chloroleukemia, on Day 5 after birth, rats were randomly divided into three groups of 45 each. All rats received 1×10^5 chloroleukemic cell line MIAC51 (i.p.) in 0.1 mL of serum free (SF) RPMI. MIAC51 were cultured in RPMI 1640 supplemented with L-glutamine and 10% fetal bovine serum at 37° C. in a 5% CO2, 100% humidity incubator. Cells were grown to 50% confluency (1.5×106 mL) collected in 50 mL conical tubes, centrifuged at 600 g×10 min. at room temperature and resuspended in SF-RPMI at a concentration of 1×10^6/mL. Group 1 rats received no further treatment. Group 2 rats received topical vehicle and CTX on day 13. […] Topical applications were performed as described above.
On day 23 after birth, a sample of blood was taken from all rats and differentials performed. Rats with leukemia were sacrificed, rats without leukemia were kept and a second differential performed on day 31, at any point if leukemia was detected, animals were sacrificed by CO2 asphyxiation.

scalp hair follicles = test: Rat model, duration of calcitriol treatment before chemotherapy; type: in vivo
From the text: While not wishing to be bound by any particular theory, it is believed that application of vitamin D to the scalp or any other area of skin having hair induces differentiation of hair follicles, which is required for the stage conversion of the hair from a growing anagen stage to an involuting catagen stage. […] In humans, a hair follicle of the scalp has a substantially longer anagen phase than that of animals. Indeed, at any time, at least 90% of hair follicles in a human scalp are in the anagen phase. It is believed that a short treatment duration is not sufficient to induce catagen stage in scalp hair follicles, which subsequently makes them more susceptible to cytotoxicity of chemotherapy. […] Continued application on a daily basis will ensure the maintenance of the catagen stage and extended protection throughout administration of multiple doses of a chemotherapeutic (e.g., taxane-containing) regimen.

C57BL/6 mice = conditions: topical calcitriol; cited from earlier work
[7] = test system: female C57BL/6 adolescent mice; conditions: topical calcitriol; cited from earlier work

## C=C1/C(=C\C=C2/CCC[C@]3(C)[C@@H]([C@H](C)CCCC(C)(C)O)CC[C@@H]23)C[C@@H](O)C[C@@H]1O [Calcitriol, (1a.3B.5Z.7E)-9,10-secocholesta-5,7,10(19)-triene-1,3,25-triol]
HEKa cells [1]
  DNAJC6 mRNA regulation pattern: Downregulated
  HSF4 mRNA regulation pattern: Upregulated at 48 hours
  HSPA2 mRNA regulation pattern: Upregulated at 48 hours
  HSPB1 mRNA regulation pattern: Down regulated at 48 hours
HEKa cells [2]; full cell: downregulated at 48 hours
  SLC1A3 mRNA regulation pattern: downregulated
HEKa cells [2]; full cell: upregulated at 16 hrs
  SLC1A1 mRNA regulation pattern: upregulated
HEKa cells [2]; full cell: upregulated at 48 hours
  KCNN4 mRNA regulation pattern: upregulated
HEKa cells [2]
  KCNB2 mRNA regulation pattern: upregulated at about 24 hours
HEKa cells [2]; listed as Vitamin D3
  KCNB2 mRNA regulation pattern: upregulated
HEKa cells [3]; full cell: down at 6 and 24 hours
  S100 A9 (Calprotectin) Response: down at 6
HEKa cells [3]; full cell: down at 24 hours
  Keratin 17 Response: down at
HEKa cells [3]; full cell: up at 3, 6, and 24 hours
  Glutathione S-transferase (GST) Response: up at 3, 6,
HEKa cells [4]; lowest levels of calcitriol
  stimulation of HEKa cell growth: 10-20%
HEKa cells [4]
  calcitriol concentration at which cell growth is inhibited: ≥ 1.0 µg/mL
SKMEL-28
  effect of calcitriol on cell growth: no significant growth promoting or growth inhibiting effects
  effect of calcitriol on cytotoxic effect of Doxorubicin: did not appear to appreciably alter
SKMEL-28; 0.1 μg/mL calcitriol supplement
  5-FU ED50 curve with vs without calcitriol: not significantly different
NIH-3T3
  effect of calcitriol on cell growth: no significant growth promoting or growth inhibiting effects
  effect of calcitriol on cytotoxic effect of Doxorubicin: did not appear to appreciably alter
[5]; 0.1 μg of calcitriol topical for 6 hours, daily x6, etoposide 1.5 mg/kg x3
  protection from etoposide-induced alopecia: partial localized protection
[5]; 0.3 μg calcitriol topical
  protection from cyclophosphamide-induced alopecia: full body protection
  protection from etoposide-induced alopecia: total body protection
[6]
  protection of the cancer cells from chemotherapy: have not shown protection of the cancer cells
Scalp hair follicles
  daily application before chemotherapy required to see any protective effect: at least four days
Scalp hair follicles; increasing protection up to one week
  protection with 5 days of application before chemotherapy: moderate protection
C57BL/6 mice
  follicular apoptosis induced by cyclophosphamide: significantly diminish the degree of follicular apoptosis
[7]
  prevention of cyclophosphamide-induced alopecia: failed to demonstrate efficacy
  regrowth of pigmented hair shafts: significantly accelerated, enhanced, and quantitatively improved
